Source: patent publication US20260263401A1, “Topical composition and uses thereof” (UNIVERSIDADE DE COIMBRA, priority 2022, published 2026)

Columns and labels:
[1] = test system: THP-1 cells; assay: Maturation of THP-1 cells assessed by up-regulation of co-stimulatory molecules CD86 and CD54
Description: In an embodiment, the THP-1 cell line has been used as a dendritic cell (DC) surrogate for skin sensitizers hazard, following the OECD guidelines. […] The THP-1 cells are stabilized overnight at a density of 5×10^5 cells/mL. On the day after, cells are seeded in 12-well plates at a density of 8×10^5 cells/well and incubated for 24 h with medium (control), Dimethyl sulfoxide (DMSO) (allergens solvent) or with 20 mM of each inhibitor of ACD (NAC), (LYS) or mixture (NAC+LYS). In addition, sensitization is induced with the strong skin allergen 1-fluoro-2,4-dinitrobenzene (DNFB) (8 μM) or Methylisothiazolinone (MI) (100 μM) for 24 h. At the end of the incubation period, cells are washed with ice-cold PBS supplemented with 1% (v/v) inactivated FBS, centrifuged at 300×g for 5 min at 4° C. and pellets are dissolved in ice-cold PBS supplemented with 1% (v/v) inactivated FBS. Then, 100 µL of the cell suspension are incubated with, or without, 3 μL of anti-human CD54 antibody (#353111, Biolegend, San Diego, CA, USA) or anti-human CD86 (#305414, Biolegend, San Diego, CA, USA) antibody for 30 min at 4° C. […] A total of 1×10^4 living cells are considered for analysis. The CD86 and CD54 levels are analyzed by flow cytometry with the acquisition channels FL1 and FL4. Based on the geometric mean fluorescence intensity (MFI), the relative fluorescence intensity (RFI) of CD86 and CD54 for positive control cells and chemical-treated cells is calculated according to the following equation: […]

[2] = test system: NRF2 dependent genes in HaCaT; assay: Expression of NRF2 dependent genes in keratinocytes (real time PCR); format: cell-based, human; settings: 6 h
Description: HaCaT is cultured with Dulbecco's Modified Eagle's Medium (DMEM) (Sigma-Aldrich, St. Louis, MO, USA), supplemented with 10% (v/v) heat-inactivated fetal bovine serum (FBS), 1% (v/v) antibiotic solution (100 U/mL penicillin, 100 μg/mL streptomycin) (Gibco, Carlsbad, CA, USA), 3.7 g/L sodium bicarbonate and 1 mM sodium pyruvate (Sigma-Aldrich, St. Louis, MO, USA).
In an embodiment, HaCaT cells are seeded in 6-well plates at a density of 6×10^5 cells/well and allowed to adhere for 24 h. After that, cells are incubated for 24 h with exposure medium (control) or treated with 10 mM of NAC, 10 mM of LYS, 8 μM of DNFB, 100 μM of MI, or 10 mM+DNFB, 10 mM LYS+DNFB and 10 mM+MI, 10 mM LYS+MI for 6 h or 24 h.
In an embodiment, total RNA (ribonucleic acid) is extracted from HaCaT treated cells, as previously described by our group [37], with NZYol reagent, according to the manufacturer's instructions and its concentration is determined by OD260 measurement using a NanoDrop spectrophotometer (Thermo Scientific, Wilmington, DE, USA). Samples are stored in RNA Storage Solution at −80° C. until use. Total RNA (1 g) is reverse-transcribed using the iScript Select cDNA Synthesis Kit, and real-time reverse transcriptase-polymerase chain reaction (RT-PCR) reactions are performed, in duplicate for each sample, on a Bio-Rad MyCycler iQ5 (Hercules, CA, USA), as previously described by our group [38].
In an embodiment, after amplification, a threshold is set for each gene and Ct values are calculated for all samples. Gene expression changes are analyzed using Bio-Rad CFX Maestro 1.1 system software (Hercules, CA, USA). The results are normalized using Hprt-1 as the reference gene. Primer sequences are designed using Beacon Designer software version 7.7 (Premier Biosoft International, Palo Alto, CA, USA) and thoroughly tested.

[3] = In vitro release testing (IVRT), Franz cells, cellulose membrane; format: in vitro ADME; settings: n=6; for dose depletion: 6 h
Description: In an embodiment, release studies of the hydrogels were performed on static vertical Franz cells (PermeGear, Inc., USA), with a diffusion circular area of 0.636 cm^2 and a receptor compartment of 5 mL. For that, infinite dose conditions (1 g) of the formulations were applied in the upper compartment, separated from the receptor by a cellulose membrane (MWCO≈14 000 Da, flat width 33 mm, Sigma-Aldrich), previously hydrated in ultrapurified water for at least 30 min. Before the experiments, the system was equilibrated for a minimum of 30 min. The release medium was composed of phosphate buffer pH 5.5 (guaranteeing the maintenance of sink conditions) and continuously stirred at 600 rpm, at 37° C. A circulating water bath maintained the membrane surface temperature at 32° C. During the release studies, the donor compartment, as well as the receptor sampling arm, were carefully covered to avoid medium evaporation, as well as to conduct the experiments under occlusive conditions. At predetermined time points (0.25, 0.5, 0.75, 1, 2, 3, 4 and 6 h), 300 μl of the medium were withdrawn and immediately replenished with fresh medium. NAC and LYS were quantified by HPLC (High-performance liquid chromatography). Release studies were conducted considering n=6 samples.
In an embodiment, the cumulative amount of NAC and LYS released over time was calculated according to the equation:
[formula] • where Cn is the API (active pharmaceutical ingredient) concentration of the receptor medium at each sampling time, Ci is the API concentration of the ith sample, A the effective diffusion area (0.636 cm^2), and VO (5 mL) and Vi (300 μL) the volumes of the receptor compartment and the collected sample, respectively.
In an embodiment, the release rates were retrieved from the slope of the linear regression obtained by plotting the cumulative amount of API diffused per cm^2 as a function of the square root of time. Additionally, mass balance studies were performed to characterize the extent of dose depletion, according to the equation:
[formula] • where Qf reflects the average cumulative amount released at the end of the assay and Qi the initial amount of API placed on the membrane.
(§1) In an embodiment, NAC and LYS were quantified by reversed-phase high-pressure liquid chromatography (RP-HPLC), using a Shimadzu LC-2010HT chromatographic system, equipped with an LC-20AD quaternary pump, a SIL-20AHT autosampler, a CTO-10AS over and an SPD-M2OA photodiode array detector. […] Using an injection volume of 50 μL, NAC and LYS were determined at 200 and 215 nm and eluted at 5.4 and 2.2 min, respectively.

[4] = In vitro permeation studies (IVPT), Franz cells; format: in vitro ADME, human; settings: formulated in the hydrogel, single application, up to 24 h, non-occlusive
Text: In an embodiment, the same vertical diffusional system of IVRT studies was used to evaluate the potential in vitro penetration of the active molecules. Human surgical skin pieces (person, type 3 skin, arm tissue) were surgically removed at Central Lisbon University Hospital Centre, after the approval of the Bioethics Committee, and processed as described in (Miranda et al., 2020). Written informed consent was obtained from the participant (Process number 447/2017). One day before the experiments, frozen epidermal specimens were left to thaw at room temperate. Afterwards, the skin sheets, with the stratum corneum side facing up, were gently placed on glass flasks filled with ultrapurified water and left to stabilize overnight, at 4° C. […] NAC and LYS were quantified by RP-HPLC, as described in the section above. […]
as §1

[5] = incubated before DNFB, vs DNFB alone
[6] = incubated before MI, vs MI alone

Row | Compound | levels of the co-stimulatory molecules CD54 and CD86 (RFI), incubated alone ([1]; THP-1, 24 h, 20 mM, no allergen) | HMOX1 expression [2, 5] | NQO1 expression [2, 5] | dose depletion [3] | Tlag (time-lagged values) [3] | quantity of the active molecules in the receptor compartment (penetration of stratum corneum of human skin) [4] | CD54 and CD86 maturation levels, pre-incubation before allergen ([1]; pre-incubation (20 mM) before 24 h DNFB (8 μM) and MI (100 μM)) | HMOX1 expression [2, 6] | TRX1 expression [2, 6]
1 | NCCCC[C@H](N)C(=O)O [LYS, lysine] | do not significantly modify | significantly decrease | significantly decrease | roughly 17% | approximately 0 h | below the limit of quantification | – | – | –
2 | CC(=O)N[C@@H](CS)C(=O)O [NAC, n-acetyl cysteine] | – | significantly decrease | – | roughly 17% | approximately 0 h | below the limit of quantification | significantly decrease | significantly decrease | significantly decrease
